# Assay results: patent US6262108A, “Medicinal use of cromoglycic acid compounds” (Kyoto Pharmaceutical Industries, Ltd., priority 1997, dated 2001)
# “Also recorded” adds a separate entry of the source.
# Columns and labels:
# [1] = system: collagen-induced arthritis in mice; experiment: Collagen-induced arthritis in mice: arthritis score; type: in vivo, male DBA/1J mice; conditions: for Arthritis score: mean ± standard error (n = 8-10)
# From the text: (§1) According to the method of Courtenay et al. (Courtenay, J. S. et al.: Immunization against heterologous type II collagen induces arthritis in mice. Nature, 283:666, 1980), male DBA/1J mice (CHARLES RIVER JAPAN INC.) were sensitized with bovine type II collagen to induce collagen-induced arthritis (rheumatoid arthritis). After the onset of arthritis, diethyl acetoacetylcromoglycate was orally administered and its inhibitory effect was examined. The method is detailed in the following.
# Male DBA/1J mice (8-week-old) were pre-bred for one week and divided into the following 3 groups based on body weight (8-10 per group).
# Bovine type II collagen (2 mg) was dissolved in 0.01M acetic acid (1 ml) and suspended in an equivalent amount of Freund's complete adjuvant, and 0.1 ml thereof was intradermally injected to the control group and treated group at 9 weeks of age at the base of the tail, followed by the second injection three weeks later at 12 weeks of age.
# Starting from day 31 after the initial injection of collagen till the end of the treatment, the mice of each group were scored (arthritis score) twice a week for the levels of redness, swelling and stiffness of four limbs by a blind test method. The scores were taken according to a method similar to the method of Bjork et al. (Bjork, J. and Kleinau, S.: Paradoxical effects of LS-2616 (Linomide) treatment in the type II collagen arthritis model in mice, Agents and Actions, 27:319-321, 1989.), wherein normal was rated 0 point, inflammation on one digit was 1 point, inflammation on two or more digits and normal metacarpal region and metatarsal region of the limbs, or inflammation on one digit and metacarpal region and metatarsal region of the limbs was 2 points, and inflammation on digits and metacarpal region and metatarsal region of the limbs was 3 points, each mouse scoring 0 to 12 points in total.
# The treatment was continued for 6 weeks from day 41 from the initial injection of collagen. […]
# [2] = system: type I and type IV allergic dermatitis; experiment: Type I and Type IV allergic dermatitis (repeat application of DNFB) auricle swelling; type: in vivo, male BALB/c mice; conditions: 100 mg/kg orally twice a day; for Increase in thickness of auricle by repeat application of 0.2% DNFB solution: mean ± standard error
# From the text: According to the method of Nagai et al., (Naoki Inagaki and Hiroichi Nagai, The 8th Spring Meeting of Japanese Society of Allergology, 1996), the inhibitory action of diethyl acetoacetylcromoglycate on type I and type IV allergic dermatitis was examined.
# According to this method, a type I allergic reaction is induced in addition to a type IV allergic reaction due to repeat contact sensitization with antigen. […] The method is described in detail in the following.
# Male 6-week-old BALB/c mice (Japan SLC, Inc.) were divided into two groups of control group and administration group including 10 mice each. A 0.5% methylcellulose solution (10 ml/kg) was forcefully administered orally to the control group and diethyl acetoacetylcromoglycate (100 mg/kg) was forcefully administered orally to the administration group twice a day for 36 days for each group. The thickness of both auricles of each mouse was measured with a dial thickness gauge (Mitutoyo Co.) under ether anesthesia before initial administration on day 1 after administration. After the initial administration on day 8 of the administration, the thickness of both auricles of each mouse was measured with a dial thickness gauge under ether anesthesia. 0.2% Dinitrofluorobenzene (DNFB) dissolved in acetone-olive oil (mixing ratio 3:1) was applied by 25 μl to the left and right auricles. After 24 hours from the application, the thickness of both auricles of each mouse was measured under ether anesthesia with a dial thickness gauge. Thereafter, similar manipulation was repeated 4 times at a week interval. At the 5th application, the thickness of both auricles was also measured at 1 and 4 hours after the application.
# Changes in the thickness of both auricles of each mouse were calculated from the measurement values of the thickness of the both auricles before the initial application. The average of changes in the thickness of the left and right auricles of each mouse was taken as the variation of the mouse.
# [3] = system: anti-bovine type II collagen antibody; experiment: Anti-bovine type II collagen antibody titer in blood (ELISA) in collagen-induced arthritis mice; type: in vivo, male DBA/1J mice; conditions: 100 mg/kg/day orally
# From the text: as §1
# (§2) Male DBA/1J mice (8-week-old) were pre-bred for one week and divided into the following 3 groups based on body weight (8-10 per group). […]
# At day 42 after the initiation of treatment, blood was taken from carotid artery and the mice were exsanguinated to death under ether anesthesia. The anti-bovine type II collagen antibody titer in blood was determined by the ELISA method according to the method of Stuart et al. (Stuart, J. M. et al.: Nature and specificity of the immune response to collagen in type II collagen-induced arthritis in mice, J. Clin. Invest., 69:673-683, 1982).
# [4] = system: bone of feet and digits of the four limbs; experiment: X-ray score of bone destruction in collagen-induced arthritis mice; type: in vivo, male DBA/1J mice; conditions: 100 mg/kg/day orally
# From the text: as §1, §2
# In addition, the whole body w as X-ray photographed and destruction state of the bone of feet and digits of the four limbs was scored (X-ray score) by a blind test according to the criteria of Gliman et al. (Gliman S. C. et al.: Immunological abnormalities in rats with adjuvant-induced ar thritis, II. Effect of antiarthritic therapy on immune function in relation to disease development, Int. J. Immunopharmacol. , 9:9-16, 1987), wherein normal was rated 0 point, destruction in one joint was 1 point, destruction in two or more joints, though not all joints, was 2 points, and destruction in all joints was 3 points, each mouse scoring 0 to 12 points in total.
compound,measurement,setting,value
"CCOC(=O)c1cc(=O)c2c(OCC(COc3cccc4oc(C(=O)OCC)cc(=O)c34)OC(=O)CC(C)=O)cccc2o1 [Example 1, Diethyl Acetoacetylcromoglycate]",effect on arthritis score (in words),"[1]; 100 mg/kg/day orally, day 38 after start of treatment, U-test with control group",inhibition of the symptoms of collagen-induced arthritis (rheumatoid arthritis); also recorded: significant improvement in the arthritis scores
same,Arthritis score,"[1]; 100 mg/kg/day orally, day 79 after initial injection of collagen (day 38 after starting treatment), control 10.70 ± 0.49, p < 0.01",6.36 ± 1.30
same,Arthritis score,[1]; day 38 after initial injection of collagen (3 days before treatment),1.80 ± 0.61
same,Increase in thickness of auricle by repeat application of 0.2% DNFB solution,"[2]; 1 hr after 5th application (type I allergic reaction), control 0.098 ± 0.012, p < 0.05",0.058 ± 0.007 mm
same,Increase in thickness of auricle by repeat application of 0.2% DNFB solution,"[2]; 4 hr after 5th application, control 0.063 ± 0.007",0.056 ± 0.007 mm
same,Increase in thickness of auricle by repeat application of 0.2% DNFB solution,"[2]; 24 hr after 1st application, control 0.011 ± 0.002",0.012 ± 0.002 mm
same,Increase in thickness of auricle by repeat application of 0.2% DNFB solution,"[2]; 24 hr after 2nd application, control 0.048 ± 0.004, p < 0.05",0.037 ± 0.003 mm
same,Increase in thickness of auricle by repeat application of 0.2% DNFB solution,"[2]; 24 hr after 3rd application, control 0.092 ± 0.009, p < 0.01",0.061 ± 0.005 mm
same,Increase in thickness of auricle by repeat application of 0.2% DNFB solution,"[2]; 24 hr after 4th application, control 0.141 ± 0.012, p < 0.01",0.095 ± 0.009 mm
same,Increase in thickness of auricle by repeat application of 0.2% DNFB solution,"[2]; 24 hr after 5th application, control 0.182 ± 0.015, p < 0.01",0.122 ± 0.010 mm
same,effect on swelling of the auricle (in words),"[2]; after the second application of DNFB, t-test with control group",significant inhibitory action on the swelling of the auricle after the second application
same,Increase in thickness of auricle by repeat application of 0.2% DNFB solution,"[2]; before 1st application, control 0.008 ± 0.003",0.008 ± 0.002 mm
same,Increase in thickness of auricle by repeat application of 0.2% DNFB solution,"[2]; before 2nd application, control 0.033 ± 0.003",0.029 ± 0.003 mm
same,Increase in thickness of auricle by repeat application of 0.2% DNFB solution,"[2]; before 3rd application, control 0.042 ± 0.005",0.035 ± 0.003 mm
same,Increase in thickness of auricle by repeat application of 0.2% DNFB solution,"[2]; before 4th application, control 0.049 ± 0.004",0.040 ± 0.005 mm
same,Increase in thickness of auricle by repeat application of 0.2% DNFB solution,"[2]; before 5th application, control 0.059 ± 0.006",0.048 ± 0.005 mm
same,"effect on swelling of the auricle, type I allergic reaction (in words)",[2]; one hour after the fifth application of DNFB,significant inhibitory action on the swelling of the auricle
same,effect on anti-bovine type II collagen antibody titer in blood (in words),"[3]; day 42 after initiation of treatment, ANOVA with control group",significant decrease in anti-bovine type II collagen antibody titer in blood; also recorded: inhibition of an increase in the anti-bovine collagen antibody titer in blood
same,Anti-bovine type II collagen antibody titer in blood,"[3]; day 83 after initial injection of collagen (day 42 after starting treatment), mean ± standard error (n = 8-10), control 0.301 ± 0.005, p < 0.01",0.203 ± 0.010
same,effect on X-ray score / bone destruction (in words),"[4]; day 42 after starting treatment, U-test with control group",signifiicant improvement in X-ray so re; also recorded: inhibition of bone destruction of feet and digits of the four limbs
same,X-ray score,"[4]; day 83 after initial injection of collagen (day 42 after starting treatment), mean ± standard error (n = 8-10), control 10.20 ± 0.40, p < 0.01",5.80 ± 1.10
